The test system of data set [1] is MCF-7 (breast cancer). Kind of data set: Survival fraction after 72 hours exposure (MTT assay). The format is cell-based, human. As for the experimental part: (§1) Growth inhibition was measured by the MTT assay. Survival fraction is calculated from at least 3 experiments, and differences in survival fraction are statistically significant P<0.05, using the Paired Two-Sample For Means T-Test. […] PC-3=prostate cancer; A549=non-small cell cancer; OvCar=ovarian cancer; CaCo=colon cancer; MCF-7=breast cancer; and SW900=non-small cell lung cancer.
Background: Formazan colour is commonly taken as a measure of viable cells.

For data set [2], the system named is OvCar (ovarian cancer). Described as above. The format is cell-based, human. As for the experimental part: as §1
The test system of data set [3] is PC-3 (prostate cancer). The data set is described as above. In kind it is cell-based, human. As to the method: as §1
For data set [4], the system named is SW900 (non-small cell lung cancer). The data set is described as above. The format is cell-based, human. As to the method: as §1
Data set [5] has as its system A549 (non-small cell cancer). Described as above. In kind it is cell-based, human. As to the method: (§2) Growth inhibition was measured by the MTT assay. […] PC-3=prostate cancer; A549=non-small cell cancer; OvCar=ovarian cancer; CaCo=colon cancer; MCF-7=breast cancer; and SW900=non-small cell lung cancer.
For data set [6], the system named is CaCo (colon cancer). The data set is described as above. The note with it: 72 hour. In kind it is cell-based, human. As to the method:
as §2

For data set [7], the system named is K562. Nature of the data set: DNA fragmentation by flow cytometry. In kind it is cell-based, human. The note with it: FIGS. 4 and 5. The text has this: It has been shown that sodium butyrate can induce apoptosis in human tumors or tumor cell lines (L. A. Noorduyn et al., Histopathology 21:59, 1992).
A general note: Flow cytometry measures light scatter and fluorescence of single cells or particles in a stream.

Data set [8] concerns post-transplant EBV-induced lymphomas. Kind of data set: Compassionate treatment of post-transplant EBV-induced lymphomas. In kind it is in vivo, human. The note with it: patient one; GCV for 2 weeks before arginine butyrate. The source says: Finally, two patients with post-transplant EBV-induced lymphomas have been treated on a compassionate basis with IRB approval. Each patient is summarized below.
Patient one was a person, 2 months post lung transplant. They were receiving cyclosporin to prevent impending rejection. They developed massive lymphadenopathy in mediastinum and hilum, with progressive respiratory failure. They were biopsy positive for EBV, and the tumor cells were monoclonal and of donor origin.
They had been off all therapy, except ganciclovir, for 3 weeks when they started arginine butyrate at 1,000 mg/kg/day. […] They eventually died from Aspergillus infection.
The second patient was a person, 4 months post-allogeneic bone marrow transplant for leukemia. They were receiving cyclosporin to prevent rejection. They developed cervical, mediastinal and abdominal lymphadenopathy, with brain metastases. A biopsy was positive for EBV and tumor cells were monoclonal confirming the diagnosis of LPD.
They had been treated with and had no response to XRT, CHOP, or α-IFN plus gamma globulin. They had been off all therapy for 2 weeks and was cachectic, too weak to ambulate, paraplegic, in constant pain and had been admitted for terminal care, when they started arginine butyrate at 1,000 mg/kg/day and ganciclovir.

The test system of data set [9] is EBV+ and EBV− cell lines (X50-7, Akata, HPB-ALL, Nalm-6). Nature of the data set: Growth of EBV+ and EBV− cell lines. Conditions: both EBV+ and EBV− cell lines. The format is cell-based, human. The text has this:
In some experiments sodium was used instead of arginine to neutralize butyric acid. […] Cell lines used were X50-7, a latent EBV+ B-cell lymphoma; Akata, a producer EBV+ Burkitt's lymphoma; HPB-ALL, a T-cell line; and Nalm-6, an EBV− B-cell line. Growth curves for X50-7 cells in different concentrations of sodium butyrate are shown in FIG. 8b and the growth curves for HPB-ALL cells in different concentrations of sodium butyrate are shown in FIG. 8c.

The subject of data set [10] is Fibroblasts (mouse BALB/c-3T3). Kind of data set: MIC on cell proliferation, 7 days in culture. In kind it is cell-based. As to the method: (§3) The ability of arginine butyrate to induce differentiation has been evaluated and is measured by inhibition of growth, in some of the neoplastic cell types previously reported to be sensitive to (sodium) butyric acid, and found arginine butyrate to be as potent as butyric acid. We have also extended that work to additional cell types and found Arginine Butyrate to induce differentiation in these new cell types. Table 1 lists the cell types tested and the minimum inhibitory concentration (MIC) of sodium butyrate (NaB) and arginine butyrate (ArgB) on these cell lines. The MIC is the lowest dose that prevents all growth over the 7 days that the cells are maintained in culture, that is the minimum dose that prevents an increase in cell number. […] The […] of ArgB and NaB were equivalent on all cell lines tested.

The subject of data set [11] is Fibroblasts (normal human). Kind of data set: MIC on cell proliferation, 7 days in culture. In kind it is cell-based. The note with it: lowest dose that prevents all growth over 7 days. As to the method: as §3
Data set [12] has as its system Choriocarcinoma (JAR). Nature of the data set: MIC on cell proliferation, 7 days in culture. In kind it is cell-based, human. As to the method:
as §3

The test system of data set [13] is Colonic Adenocarcinoma (HT29). Kind of data set: MIC on cell proliferation, 7 days in culture. The format is cell-based, human. As for the experimental part: as §3
For data set [14], the system named is Erythroleukemia (K562). Kind of data set: MIC on cell proliferation, 7 days in culture. The format is cell-based, human. As to the method:
as §3

For data set [15], the system named is Gastric Carcinoma (AGS). Nature of the data set: MIC on cell proliferation, 7 days in culture. In kind it is cell-based, human. As for the experimental part: as §3
The subject of data set [16] is Myeloid Leukemia (HL60). Nature of the data set: MIC on cell proliferation, 7 days in culture. In kind it is cell-based, human. As for the experimental part: as §3
The subject of data set [17] is Osteosarcoma (HOS). Kind of data set: MIC on cell proliferation, 7 days in culture. In kind it is cell-based, human. As for the experimental part: as §3
In data set [18] the test system is Rhabdomyosarcoma. Nature of the data set: MIC on cell proliferation, 7 days in culture. In kind it is cell-based, human. As to the method: as §3
Data set [19] in a line: Clinical toxicity in patients. In kind it is in vivo, human. Conditions: adults; IV infusion of similar doses. As to the method: Clinical experience with butyrates have been performed in children with acute myelogenous leukemia in Israel, and in children with neuroblastoma (K. Prasad, Life Sci. 27:1351-58, 1980). […] Eleven pediatric patients and twelve adults with β-hemoglobinopathies were treated with IV arginine butyrate at a starting dose of 500 mg/kg/day for 2-7 weeks. If no side effects were noted, the rate was increased by 250 mg/kg/day to a final rate of 1500 mg/kg/day in 4 patients, and 2000 mg/kg/day in 2 patients. […] This rise in BUN returned to normal within 12 hours of discontinuation of drug, and is thought to be secondary to effect of arginine upon ureagenesis. […] Peak serum levels of butyrate ranged between 0.04-0.05 mM, and butyrate was not detectable 15 minutes after infusion was discontinued. Plasma arginine levels were also rapidly cleared, with a T1/2 of 15 minutes, and baseline arginine levels were reached within 12 hours after discontinuation of infusion.
Three patients with refractory neoplasms (breast, melanoma, adenocarcinoma, of unknown primary) have been enrolled and completed 1-2 cycles of arginine butyrate as a dose of 500 mg/kg/day over 6-8 hours for 10 days.
Three patients (with breast cancer, bowel cancer or Hodgkins disease) have completed two cycles of arginine butyrate at a dose of 750 mg/kg/day for 10 days. […] Otherwise, there was no other objective measures of organ progressed after treatment was topped. […] There was a further resolution of the disease during the second cycle. Disease progression was noted one month after second cycle was completed. At 1000 mg/kg/day, 3 patients have been enrolled on study.
An inter-group dose-escalation study is being conducted in patients with refractory malignancies. There are 3 patients per group with the dose levels starting at 500 mg/kg/day, and increasing by 250 mg/kg/day per group, if toxicity permits. Doses are given by 8 hour IV infusion, daily, for 5 days times 2 weeks, with weekends off, for a total of 10 days of treatment per cycle.

For data set [20] the following is noted: children with acute myelogenous leukemia or neuroblastoma; 0.5-1.5 g/kg/day for 14 days and 10 g/kg/day IV; cited from earlier work.
For data set [21], the system named is breast and colon lines. Nature of the data set: Enhancement of cytotoxicity of other chemotherapeutic agents by arginine butyrate. The note with it: evaluated with arginine butyrate.
Source text: Other chemotherapeutic agents with non-overlapping mechanisms of antiproliferative activity such as 5-fluorouracil, taxol and interferon alpha have been evaluated with arginine butyrate.
[22] abbreviates: Table 4, 0.1 A (0.1 μg/ml), 72 hour.
Setting [23] is: Table 4, 0.5 A (0.5 μg/ml), 72 hour.
The mark [24] stands for this setting: Table 3, 1 CP (1.0 μg/ml), 72 hours.
Setting [25] is: Table 3, 2 CP (2.0 μg/ml), 72 hours.

Like-named read-outs stand apart in the source and are kept apart here. Marks after values point to notes of the source that are not given here.

Take `COc1cccc2c1C(=O)c1c(O)c3c(c(O)c1C2=O)C[C@@](O)(C(=O)CO)C[C@@H]3O[C@H]1C[C@H](N)[C@H](O)[C@H](C)O1` [A, adriamycin]: the “Survival Fraction” value is 0.73* in data set [1] (Table 4, 0.1 A (0.1 μg/ml)); 0.69* in data set [1] (Table 4, 0.5 A (0.5 μg/ml)); 0.83* in data set [2] (setting [22]); 0.81* in [2] (setting [23]); 0.72* in data set [3] (setting [22]); 0.68* in data set [3] (setting [23]). In addition, the “Survival Fraction” value is on record as 0.82* in data set [4] (Table 4, 0.1 A (0.1 μg/ml)); 0.76* in data set [4] (Table 4, 0.5 A (0.5 μg/ml)); 0.59* in data set [5] (setting [22]); 0.59* in [5] (setting [23]); 0.68* in data set [6] (Table 4, 0.1 A (0.1 μg/ml)); 0.62* in data set [6] (Table 4, 0.5 A (0.5 μg/ml)). For the same compound, in [7], the “apoptotic activity on addition of arginine butyrate” value (from here on “apoptotic activity on addition”) is “increased their apoptotic activity”.
In the case of `N.N.[Cl][Pt][Cl]` [CP, cisplatin], the “Survival Fraction” value in [2] (setting [24]) is reported as 0.91; in [2] (setting [25]), 0.45*; in data set [3] (setting [24]), 0.92; in data set [3] (setting [25]), 0.49*; in [5] (setting [24]), 0.77*; in [5] (setting [25]) it was 0.54*.
As for `Nc1nc(O)c2ncn(COC(CO)CO)c2n1` [GCV, ganciclovir, reference compound], in [8], the tumor response entry is listed as “showed no response”. For the same compound, the levels generally cytocidal result in data set [9] is on record as “above 30 μM”.
A word on the MIC: it is the smallest concentration in the dilution series that meets the test's criterion for growth inhibition. A high value points to a less susceptible organism. On to `CCCC(=O)[O-].[Na+]` [NaB, sodium butyrate, reference compound], for which the MIC is >5,000 μM in [10]; >5,000 μM in [11]; 156 µM in [12]; 2,000 μM in [13]; >5,000 μM in [14]; 2,000 μM in [15]. Further, the values for the MIC in [16], in data set [17] and in data set [18] were 78 µM, 312 µM and 156 µM, respectively. In addition, the toxic side effects result is given as “no toxic side effects” in [19] and “without toxic side effects” in data set [20].
As to `CC[C@@]1(O)C(=O)OCc2c1cc1n(c2=O)Cc2cc3ccccc3nc2-1` [camptothecin], the “apoptotic activity on addition” value in [7] was “increased their apoptotic activity”.
Consider `C[C@@H]1C[C@@H]([C@H](O)CC2CC(=O)NC(=O)C2)C(=O)[C@@H](C)C1` [cyclohexamide], for which the “apoptotic activity on addition” value in data set [7] is listed as “increased their apoptotic activity”.
Regarding `O=P1(N(CCCl)CCCl)NCCCO1` (stereo not shown) [cyclophosphamide], the “apoptotic activity on addition” value in data set [7] is listed as “Lack of enhancement”.
The same measure, in the same setting: the entry for `COc1cc([C@@H]2c3cc4c(cc3[C@@H](O[C@@H]3O[C@@H]5CO[C@@H](C)O[C@H]5[C@H](O)[C@H]3O)[C@H]3COC(=O)[C@H]23)OCO4)cc(OC)c1O` [etoposide] is “increased their apoptotic activity”.
Take `CC(=O)O[C@H]1C(=O)[C@@]2(C)[C@H]([C@H](OC(=O)c3ccccc3)[C@]3(O)C[C@H](OC(=O)[C@H](O)[C@@H](NC(=O)c4ccccc4)c4ccccc4)C(C)=C1C3(C)C)[C@]1(OC(C)=O)CO[C@@H]1C[C@@H]2O` [taxol]: in [21], the “concentration of agent at which enhancement of cytotoxicity was observed” value is given as “exceeding 10 mM”.

The values are drawn from patent publication US6677302B2, “Compositions and methods for the treatment of viral disorders” (The Trustees of Boston University, priority 1996, dated 2004).
